Source: US4348410A, “Cyclohexane carboxylic acid derivatives” (Nippon Chemiphar Co., Ltd., priority 1979, dated 1982)
Read-outs that look alike come from different tables or passages of the source.

Key:
gastric secretion = experiment: Influence to the gastric secretion (pylorus ligation); assay type: in vivo, Male Sprague-Dawley strain rats
Experimental: Male Sprague-Dawley strain rats, weighing 160-180 g were deprived of food but allowed free access to water for 20 hours prior to experiment. […] The test drug was given intraperitoneally immediately after pylorus ligation. The rats were sacrificed 3, 6 and 12 hours later and the stomachs removed. The gastric juice was collected and analyzed for volume. Then the gastric juice was centrifuged at 1300 g for 10 minutes at room temperature to give the supernatant. The total acidity and peptic activity of the supernatant were determined. Total acidity was determined by titrating with 0.01 N NaOH. […] Total acidity is shown as the titration volume (ml) and peptic activity is shown as the corresponding weight (mg) to crystal pepsin.

Shay ulcers = Shay ulcers (pylorus ligation); assay type: in vivo, Male Sprague-Dawley strain rats; settings: for Ulcer Grade 0 (number of rats): 0=no lesion; for Ulcer Grade 1 (number of rats): 1=hemorrhagic suffusion; for Ulcer Grade 2 (number of rats): 2=1-5 small ulcers (<3 mm); for Ulcer Grade 3 (number of rats): 3=many small ulcers (more than 5) or 1 ulcer of marked size; for Ulcer Grade 4 (number of rats): 4=many ulcers of marked size; for Ulcer Grade 5 (number of rats): 5=perforated ulcer
Experimental: The rats were sacrificed 18 hours later by an overdose of ether and the stomach removed. The stomach was incised along the greater curvature and the surface area of each lesion in forestomach was measured by the naked eye. […] 4=many ulcers of marked size 5=perforated ulcer The test drugs were given intraperitoneally, immediately after pylorus ligation.

urokinase = urokinase (Homo sapiens, UniProt P00749); experiment: Inhibitory effects on urokinase (hydrolysis of N-acetylglycyl lysine methyl ester); assay type: biochemical; settings: 37° C., 10 minutes; concentration not given
Experimental: The compounds of the formula (I) have excellent inhibitory effects on protease. The inhibitory effects were determined by the following methods: Inhibitory effects of the compounds on urokinase were determined according to the method described by A. J. Joeson et al (Throm. […]. 21, 259-272 (1969)). In particular, inhibitory effects of the compounds on hydrolysis of N-acetylglycyl lysine methyl ester by urokinase were determined (incubated at 37° C. for 10 minutes).

chymotrypsin = chymotrypsin (Bos taurus, UniProt P00766); experiment: Inhibitory effects on chymotrypsin (hydrolysis of N-acetyl-L-tyrosine ethyl ester); assay type: biochemical; settings: 37° C., 10 minutes; concentration not given
Experimental: The compounds of the formula (I) have excellent inhibitory effects on protease. The inhibitory effects were determined by the following methods: Inhibitory effects on the compounds of chymotrypsin were determined according to the method described by M. […] In particular, inhibitory effects of the compounds on hydrolysis of N-acetyl-L-tyrosine ethyl ester by chymotrypsin were examined (incubated at 37° C. for 10 minutes).

thrombin = thrombin (Bos taurus, UniProt P00735); experiment: Inhibitory effects on thrombin (hydrolysis of p-tosylarginine methyl ester); assay type: biochemical; settings: 37° C., 10 minutes; concentration not given
Experimental: The compounds of the formula (I) have excellent inhibitory effects on protease. The inhibitory effects were determined by the following methods:
Inhibitory effects of the compounds on thrombin were determined according to the method described by M. Muramatsu et al (The Journal of Biochemistry, Volume 65 (1), 17 (1969)). In particular, inhibitory effects of the compounds on hydrolysis of p-tosylarginine methyl ester by thrombin were examined (incubated at 37° C. for 10 minutes).

Acute toxicity = settings: mouse, in vivo, po, 7 days observation
Experimental: […]. The test drugs were given orally using gastric sonde. […] The LD50 value was calculated by the Probit method (C.I. Bliss).

trypsin = target: T1, trypsin (Bos taurus, UniProt P00760); experiment: Inhibitory effects on trypsin (hydrolysis of p-tosylarginine methyl ester); assay type: biochemical; settings: 37° C., 10 minutes; concentration not given
T1 sequence (P00760 24-246): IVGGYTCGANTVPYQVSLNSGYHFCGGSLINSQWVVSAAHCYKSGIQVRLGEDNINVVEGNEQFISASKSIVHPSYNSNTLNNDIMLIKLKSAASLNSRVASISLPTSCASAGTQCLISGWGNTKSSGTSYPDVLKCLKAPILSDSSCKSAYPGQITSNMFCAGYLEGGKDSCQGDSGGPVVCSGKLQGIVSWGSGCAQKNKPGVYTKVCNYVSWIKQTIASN
Experimental: In particular, inhibitory effects of the compounds on hydrolysis of p-tosylarginine methyl ester by trypsin were examined (incubated at 37° C. for 10 minutes).

N=C(N)NC[C@H]1CC[C@H](C(=O)Oc2ccccc2C(=O)OCc2ccccc2)CC1 [Compound 1]
Gastric Contents Volume (gastric secretion; 3 hours, 75 mg/kg i.p.): 2.6 ± 0.4 mL | Gastric Contents Volume % change (gastric secretion; 3 hours, 75 mg/kg i.p.): 10.3% | Titratable Acid Output (gastric secretion; 3 hours, 75 mg/kg i.p.): 39.2 ± 11.6 μEg | Titratable Acid Output % change (gastric secretion; 3 hours, 75 mg/kg i.p.): 52.5% | Titratable Pepsin Output (gastric secretion; 3 hours, 75 mg/kg i.p.): 5.7 ± 1.5 mg | Titratable Pepsin Output % change (gastric secretion; 3 hours, 75 mg/kg i.p.): 1.7% | Gastric Contents Volume (gastric secretion; 3 hours, 150 mg/kg i.p.): 0.7 ± 0.3 mL | Gastric Contents Volume % change (gastric secretion; 3 hours, 150 mg/kg i.p.): 75.9% | Titratable Acid Output (gastric secretion; 3 hours, 150 mg/kg i.p.): 9.8 ± 3.3 μEg | Titratable Acid Output % change (gastric secretion; 3 hours, 150 mg/kg i.p.): 88.1% | Titratable Pepsin Output (gastric secretion; 3 hours, 150 mg/kg i.p.): 1.4 ± 0.7 mg | Titratable Pepsin Output % change (gastric secretion; 3 hours, 150 mg/kg i.p.): 75.9% | Gastric Contents Volume (gastric secretion; 3 hours, 300 mg/kg i.p.): 0.5 ± 0.2 mL | Gastric Contents Volume % change (gastric secretion; 3 hours, 300 mg/kg i.p.): 82.8% | Titratable Acid Output (gastric secretion; 3 hours, 300 mg/kg i.p.): 4.6 ± 3.3 μEg | Titratable Acid Output % change (gastric secretion; 3 hours, 300 mg/kg i.p.): 94.4% | Titratable Pepsin Output (gastric secretion; 3 hours, 300 mg/kg i.p.): 0.9 ± 0.6 mg | Titratable Pepsin Output % change (gastric secretion; 3 hours, 300 mg/kg i.p.): 84.5% | Gastric Contents Volume (gastric secretion; 6 hours, 75 mg/kg i.p.): 4.2 ± 0.6 mL | Gastric Contents Volume % change (gastric secretion; 6 hours, 75 mg/kg i.p.): 31.1% | Titratable Acid Output (gastric secretion; 6 hours, 75 mg/kg i.p.): 259.8 ± 61.8 μEq | Titratable Acid Output % change (gastric secretion; 6 hours, 75 mg/kg i.p.): 32.0% | Titratable Pepsin Output (gastric secretion; 6 hours, 75 mg/kg i.p.): 13.9 ± 3.0 mg | Titratable Pepsin Output % change (gastric secretion; 6 hours, 75 mg/kg i.p.): 35.9% | Gastric Contents Volume (gastric secretion; 6 hours, 150 mg/kg i.p.): 1.5 ± 0.3 mL | Gastric Contents Volume % change (gastric secretion; 6 hours, 150 mg/kg i.p.): 75.4% | Titratable Acid Output (gastric secretion; 6 hours, 150 mg/kg i.p.): 85.3 ± 49.4 μEq | Titratable Acid Output % change (gastric secretion; 6 hours, 150 mg/kg i.p.): 77.7% | Titratable Pepsin Output (gastric secretion; 6 hours, 150 mg/kg i.p.): 4.7 ± 1.1 mg | Titratable Pepsin Output % change (gastric secretion; 6 hours, 150 mg/kg i.p.): 78.3% | Gastric Contents Volume (gastric secretion; 6 hours, 300 mg/kg i.p.): 1.5 ± 0.3 mL | Gastric Contents Volume % change (gastric secretion; 6 hours, 300 mg/kg i.p.): 75.4% | Titratable Acid Output (gastric secretion; 6 hours, 300 mg/kg i.p.): 70.4 ± 30.4 μEq | Titratable Acid Output % change (gastric secretion; 6 hours, 300 mg/kg i.p.): 81.6% | Titratable Pepsin Output (gastric secretion; 6 hours, 300 mg/kg i.p.): 3.5 ± 1.4 mg | Titratable Pepsin Output % change (gastric secretion; 6 hours, 300 mg/kg i.p.): 83.9% | Gastric Contents Volume (gastric secretion; 12 hours, 75 mg/kg i.p.): 5.2 ± 2.1 mL | Gastric Contents Volume % change (gastric secretion; 12 hours, 75 mg/kg i.p.): 61.5% | Titratable Acid Output (gastric secretion; 12 hours, 75 mg/kg i.p.): 394.6 ± 136.5 μEq | Titratable Acid Output % change (gastric secretion; 12 hours, 75 mg/kg i.p.): 51.9% | Titratable Pepsin Output (gastric secretion; 12 hours, 75 mg/kg i.p.): 27.3 ± 8.6 mg | Titratable Pepsin Output % change (gastric secretion; 12 hours, 75 mg/kg i.p.): 52.9% | Gastric Contents Volume (gastric secretion; 12 hours, 150 mg/kg i.p.): 6.3 ± 0.9 mL | Gastric Contents Volume % change (gastric secretion; 12 hours, 150 mg/kg i.p.): 53.3% | Titratable Acid Output (gastric secretion; 12 hours, 150 mg/kg i.p.): 387.3 ± 79.3 μEq | Titratable Acid Output % change (gastric secretion; 12 hours, 150 mg/kg i.p.): 52.8% | Titratable Pepsin Output (gastric secretion; 12 hours, 150 mg/kg i.p.): 24.0 ± 4.2 mg | Titratable Pepsin Output % change (gastric secretion; 12 hours, 150 mg/kg i.p.): 58.6% | Gastric Contents Volume (gastric secretion; 12 hours, 300 mg/kg i.p.): 3.6 ± 0.6 mL | Gastric Contents Volume % change (gastric secretion; 12 hours, 300 mg/kg i.p.): 73.3% | Titratable Acid Output (gastric secretion; 12 hours, 300 mg/kg i.p.): 258.4 ± 66.9 μEq | Titratable Acid Output % change (gastric secretion; 12 hours, 300 mg/kg i.p.): 68.5% | Titratable Pepsin Output (gastric secretion; 12 hours, 300 mg/kg i.p.): 14.0 ± 2.4 mg | Titratable Pepsin Output % change (gastric secretion; 12 hours, 300 mg/kg i.p.): 75.9% | Ulcer Grade 0 (number of rats) (Shay ulcers; 75 mg/kg i.p.): 8 | Ulcer Grade 1 (number of rats) (Shay ulcers; 75 mg/kg i.p.): 0 | Ulcer Grade 2 (number of rats) (Shay ulcers; 75 mg/kg i.p.): 2 | Ulcer Grade 3 (number of rats) (Shay ulcers; 75 mg/kg i.p.): 0 | Ulcer Grade 4 (number of rats) (Shay ulcers; 75 mg/kg i.p.): 0 | Ulcer Grade 5 (number of rats) (Shay ulcers; 75 mg/kg i.p.): 0 | Ulcer Grade 0 (number of rats) (Shay ulcers; 150 mg/kg i.p.): 10 | Ulcer Grade 1 (number of rats) (Shay ulcers; 150 mg/kg i.p.): 0 | Ulcer Grade 2 (number of rats) (Shay ulcers; 150 mg/kg i.p.): 0 | Ulcer Grade 3 (number of rats) (Shay ulcers; 150 mg/kg i.p.): 0 | Ulcer Grade 4 (number of rats) (Shay ulcers; 150 mg/kg i.p.): 0 | Ulcer Grade 5 (number of rats) (Shay ulcers; 150 mg/kg i.p.): 0 | Ulcer Grade 0 (number of rats) (Shay ulcers; 300 mg/kg i.p.): 7 | Ulcer Grade 1 (number of rats) (Shay ulcers; 300 mg/kg i.p.): 0 | Ulcer Grade 2 (number of rats) (Shay ulcers; 300 mg/kg i.p.): 0 | Ulcer Grade 3 (number of rats) (Shay ulcers; 300 mg/kg i.p.): 0 | Ulcer Grade 4 (number of rats) (Shay ulcers; 300 mg/kg i.p.): 0 | Ulcer Grade 5 (number of rats) (Shay ulcers; 300 mg/kg i.p.): 0 | Inhibition (%) Urokinase (urokinase): 32% | Inhibition (%) Chymotrypsin (chymotrypsin): 100% | Inhibition (%) Thrombin (thrombin): 37% | LD50 at 168 h (Acute toxicity; female mice, read-out: LD50 Female): > 8000 mg/kg | LD50 at 168 h (Acute toxicity; male mice, read-out: LD50 male): 7600 mg/kg | Inhibition (%) Trypsin (trypsin): 79%
